Laboratory results taken from patent publication US20230233569A1 (Revolution Medicines, Inc., priority 2020, published 2023).

Key:
KRAS G12C = KRAS G12C (Homo sapiens, UniProt P01116+P62937, G12C); test: Ras-Raf disruption / FRET / MOA assay (BRAF RBD); assay type: biochemical; conditions: KRAS G12C FRET data IC50, Ras-Raf disruption, with Cyclophilin A
How it was run: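 TR-FRET read-out after 1.5 h with anti-His Eu-W1024 (10 nM) and anti-GST APC (50 nM), following 3 h at 25 °C of compound (top 30 μM, 3-fold, 10 points) with 25 μM Cyclophilin A, 12.5 nM GMPPNP-loaded K-Ras G12C and 50 nM BRAF RBD; IC50 reported.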

NCI-H358 (K-Ras G12C) = test: CellTiter-Glo cell viability assay; assay type: cell-based; conditions: Homo sapiens, NCI-H358, 120 h, read-out: H358 Cell Viability assay data IC50, K-Ras G12C, 5-day treatment
How it was run: (§1)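 Direct compound addition to plated cells; 5-day exposure; ~30 min RT equilibration; CellTiter-Glo luminescence. Normalization: (sample/avg DMSO)*100; 4-parameter logistic curve fit.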

AsPC-1 (K-Ras G12D) [1] = test: CellTiter-Glo cell viability assay; assay type: cell-based; conditions: Homo sapiens, ASPC1, 120 h, read-out: AsPC-1 Cell Viability assay data IC50, K-Ras G12D, 5-day treatment
How it was run: as §1

AsPC-1 (K-Ras G12D) [2] = test: Potency assay: pERK; assay type: cell-based; conditions: Homo sapiens, ASPC1, read-out: pERK EC50
KRAS Q61H = KRAS Q61H (Homo sapiens, UniProt P01116+P62937, Q61H); test: Ras-Raf disruption / FRET / MOA assay (BRAF RBD); assay type: biochemical
Sequence of KRAS Q61H (P01116 1-169 isoform P01116-2 Q61H limits assumed): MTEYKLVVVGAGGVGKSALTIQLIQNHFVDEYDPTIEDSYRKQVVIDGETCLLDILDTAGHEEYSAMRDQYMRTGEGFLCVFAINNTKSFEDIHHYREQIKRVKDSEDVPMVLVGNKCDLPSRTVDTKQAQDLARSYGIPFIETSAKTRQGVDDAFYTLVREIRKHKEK
Sequence of KRAS Q61H (P62937 whole entry): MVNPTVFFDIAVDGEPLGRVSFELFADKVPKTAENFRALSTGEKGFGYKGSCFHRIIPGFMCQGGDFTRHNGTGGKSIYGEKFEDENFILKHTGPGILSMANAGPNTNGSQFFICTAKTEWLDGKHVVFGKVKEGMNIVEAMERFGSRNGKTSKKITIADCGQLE
How it was run: (§2)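 Compound-induced Ras–Cyclophilin A ternary complex disrupting BRAF RBD binding, read as IC50 from reduced TR-FRET ratio relative to DMSO. Final: Ras-GMPPNP 12.5 nM, BRAF RBD 50 nM, Cyclophilin A 25 μM, top compound 30 μM (3-fold, 10 points); 3 h at 25 °C, then 1.5 h with detection antibodies.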

KRAS G12V = KRAS G12V (Homo sapiens, UniProt P01116+P62937, G12V); test: Ras-Raf disruption / FRET / MOA assay (BRAF RBD); assay type: biochemical; conditions: KRAS G12V FRET data IC50, Ras-Raf disruption, with Cyclophilin A
Sequence of KRAS G12V (P01116 1-169 isoform P01116-2 G12V limits assumed): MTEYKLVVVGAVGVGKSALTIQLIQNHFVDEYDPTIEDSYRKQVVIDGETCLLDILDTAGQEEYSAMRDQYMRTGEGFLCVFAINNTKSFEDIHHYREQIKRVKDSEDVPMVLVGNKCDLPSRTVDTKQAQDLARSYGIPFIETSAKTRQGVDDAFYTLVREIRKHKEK
Sequence of KRAS G12V (P62937 whole entry): as the sequence (P62937 whole entry) above
How it was run: as §2

NRAS WT = NRAS WT (Homo sapiens, UniProt P01111+P62937); test: Ras-Raf disruption / FRET / MOA assay (BRAF RBD); assay type: biochemical
Sequence of NRAS WT (P01111 whole entry): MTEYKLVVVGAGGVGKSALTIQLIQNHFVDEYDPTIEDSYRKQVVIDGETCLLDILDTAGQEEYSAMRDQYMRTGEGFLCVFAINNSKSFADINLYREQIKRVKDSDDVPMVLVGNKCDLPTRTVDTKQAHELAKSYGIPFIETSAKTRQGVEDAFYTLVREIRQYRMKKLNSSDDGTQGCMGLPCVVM
Sequence of NRAS WT (P62937 whole entry): as the sequence (P62937 whole entry) above
How it was run: as §2

KRAS G12D = KRAS G12D (Homo sapiens, UniProt P01116+P62937, G12D); test: Ras-Raf disruption / FRET / MOA assay (BRAF RBD); assay type: biochemical; conditions: KRAS G12D FRET data IC50, Ras-Raf disruption, with Cyclophilin A
Sequence of KRAS G12D (P01116 1-169 isoform P01116-2 G12D limits assumed): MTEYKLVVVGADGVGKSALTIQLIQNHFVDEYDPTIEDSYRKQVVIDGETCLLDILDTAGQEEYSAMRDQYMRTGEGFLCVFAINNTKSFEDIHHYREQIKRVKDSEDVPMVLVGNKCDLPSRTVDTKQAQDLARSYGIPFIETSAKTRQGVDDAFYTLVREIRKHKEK
Sequence of KRAS G12D (P62937 whole entry): as the sequence (P62937 whole entry) above
How it was run: as §2

NRAS Q61K = NRAS Q61K (Homo sapiens, UniProt P01111+P62937, Q61K); test: Ras-Raf disruption / FRET / MOA assay (BRAF RBD); assay type: biochemical
Sequence of NRAS Q61K (P01111 whole entry Q61K): as the sequence (P01111 whole entry) above, with Q61K counted along it
Sequence of NRAS Q61K (P62937 whole entry): as the sequence (P62937 whole entry) above
How it was run: as §2

NRAS Q61R = NRAS Q61R (Homo sapiens, UniProt P01111+P62937, Q61R); test: Ras-Raf disruption / FRET / MOA assay (BRAF RBD); assay type: biochemical
Sequence of NRAS Q61R (P01111 whole entry Q61R): as the sequence (P01111 whole entry) above, with Q61R counted along it
Sequence of NRAS Q61R (P62937 whole entry): as the sequence (P62937 whole entry) above
How it was run: as §2

NRAS G12C = NRAS G12C (Homo sapiens, UniProt P01111+P62937, G12C); test: Ras-Raf disruption / FRET / MOA assay (BRAF RBD); assay type: biochemical; conditions: NRAS G12C FRET data IC50, NRAS G12C
Sequence of NRAS G12C (P01111 whole entry G12C): as the sequence (P01111 whole entry) above, with G12C counted along it
Sequence of NRAS G12C (P62937 whole entry): as the sequence (P62937 whole entry) above
How it was run: as §2

KRAS WT = KRAS WT (Homo sapiens, UniProt P01116+P62937); test: Ras-Raf disruption / FRET / MOA assay (BRAF RBD); assay type: biochemical; conditions: KRAS WT FRET data IC50, Ras-Raf disruption, with Cyclophilin A
Sequence of KRAS WT (P01116 1-169 isoform P01116-2 limits assumed): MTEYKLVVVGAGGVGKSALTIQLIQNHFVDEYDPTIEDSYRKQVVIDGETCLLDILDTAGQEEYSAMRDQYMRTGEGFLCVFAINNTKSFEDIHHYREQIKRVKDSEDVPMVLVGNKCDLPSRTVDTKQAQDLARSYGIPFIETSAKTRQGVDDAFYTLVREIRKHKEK
Sequence of KRAS WT (P62937 whole entry): as the sequence (P62937 whole entry) above
How it was run: as §2

KRAS G12S = KRAS G12S (Homo sapiens, UniProt P01116+P62937, G12S); test: Ras-Raf disruption / FRET / MOA assay (BRAF RBD); assay type: biochemical; conditions: KRAS G12S FRET data IC50, Ras-Raf disruption, with Cyclophilin A
Sequence of KRAS G12S (P01116 1-169 isoform P01116-2 G12S limits assumed): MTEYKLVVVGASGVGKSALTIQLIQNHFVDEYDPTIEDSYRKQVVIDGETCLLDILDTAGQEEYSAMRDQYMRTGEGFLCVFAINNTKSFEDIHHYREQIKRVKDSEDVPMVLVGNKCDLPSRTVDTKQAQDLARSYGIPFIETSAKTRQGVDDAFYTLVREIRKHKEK
Sequence of KRAS G12S (P62937 whole entry): as the sequence (P62937 whole entry) above
How it was run: as §2

KRAS G13D = KRAS G13D (Homo sapiens, UniProt P01116+P62937, G13D); test: Ras-Raf disruption / FRET / MOA assay (BRAF RBD); assay type: biochemical; conditions: KRAS G13D FRET data IC50, Ras-Raf disruption, with Cyclophilin A
Sequence of KRAS G13D (P01116 1-169 isoform P01116-2 G13D limits assumed): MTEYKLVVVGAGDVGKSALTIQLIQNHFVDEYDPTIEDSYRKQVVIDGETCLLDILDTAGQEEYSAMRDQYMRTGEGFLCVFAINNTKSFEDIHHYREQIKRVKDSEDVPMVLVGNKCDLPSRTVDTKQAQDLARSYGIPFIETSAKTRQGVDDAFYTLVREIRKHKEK
Sequence of KRAS G13D (P62937 whole entry): as the sequence (P62937 whole entry) above
How it was run: as §2

KRAS G13C = KRAS G13C (Homo sapiens, UniProt P01116+P62937, G13C); test: Ras-Raf disruption / FRET / MOA assay (BRAF RBD); assay type: biochemical; conditions: KRAS G13C FRET data IC50, Ras-Raf disruption, with Cyclophilin A
Sequence of KRAS G13C (P01116 1-169 isoform P01116-2 G13C limits assumed): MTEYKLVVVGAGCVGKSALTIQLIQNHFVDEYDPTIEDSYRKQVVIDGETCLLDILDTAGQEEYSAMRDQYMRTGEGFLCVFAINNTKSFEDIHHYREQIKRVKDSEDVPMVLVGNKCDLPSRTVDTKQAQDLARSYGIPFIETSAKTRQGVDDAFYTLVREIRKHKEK
Sequence of KRAS G13C (P62937 whole entry): as the sequence (P62937 whole entry) above
How it was run: as §2

Sequence of KRAS G12C (P01116 1-169 isoform P01116-2 G12C limits assumed): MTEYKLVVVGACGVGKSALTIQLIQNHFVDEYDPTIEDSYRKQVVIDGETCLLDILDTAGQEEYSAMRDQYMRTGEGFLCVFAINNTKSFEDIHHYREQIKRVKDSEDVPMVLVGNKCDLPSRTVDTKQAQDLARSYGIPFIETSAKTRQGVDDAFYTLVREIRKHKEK
Sequence of KRAS G12C (P62937 whole entry): as the sequence (P62937 whole entry) above

Structure (SMILES)	IC50 (KRAS G12C)	IC50 (NCI-H358 (K-Ras G12C))	IC50 (AsPC-1 (K-Ras G12D) [1])	EC50 (AsPC-1 (K-Ras G12D) [2])	IC50 (KRAS Q61H)	IC50 (KRAS G12V)	IC50 (NRAS WT)	IC50 (KRAS G12D)	IC50 (NRAS Q61K)	IC50 (NRAS Q61R)	IC50 (NRAS G12C)	IC50 (KRAS WT)	IC50 (KRAS G12S)	IC50 (KRAS G13D)	IC50 (KRAS G13C)
CCn1c(-c2cccnc2[C@H](C)OC)c2c3cc(ccc31)-c1cc(O)cc(c1)C[C@H](NC(=O)[C@H](C(C)C)N(C)C(=O)CN(C)C(=O)[C@@H]1N[C@@H]1C(F)(F)F)C(=O)N1CCC[C@H](N1)C(=O)OCC(C)(C)C2 [Example 258]	10 to 100 nM	10 to 100 nM	100 to 1000 nM	< 5000 nM	< 10 nM	10 to 100 nM	< 10 nM	10 to 100 nM	10 to 100 nM	10 to 100 nM	10 to 100 nM	10 to 100 nM	10 to 100 nM	10 to 100 nM	< 10 nM
CCn1c(-c2cccnc2[C@H](C)OC)c2c3cc(ccc31)-c1cc(O)cc(c1)C[C@H](NC(=O)[C@H](C(C)C)N(C)C(=O)CN(C)C(=O)[C@H]1N[C@H]1C(F)(F)F)C(=O)N1CCC[C@H](N1)C(=O)OCC(C)(C)C2 [Example 259]	10 to 100 nM	10 to 100 nM	100 to 1000 nM	< 5000 nM	10 to 100 nM	10 to 100 nM	10 to 100 nM	100 to 1000 nM	100 to 1000 nM	100 to 1000 nM	10 to 100 nM	10 to 100 nM	10 to 100 nM	10 to 100 nM	10 to 100 nM
CCn1c(-c2cccnc2[C@H](C)OC)c2c3cc(ccc31)-c1cc(O)cc(c1)C[C@H](NC(=O)[C@H](C(C)C)N(C)C(=O)CN(C)C(=O)[C@@H]1N[C@H]1C(F)(F)F)C(=O)N1CCC[C@H](N1)C(=O)OCC(C)(C)C2 [Example 260]	10 to 100 nM	10 to 100 nM	100 to 1000 nM	< 5000 nM	10 to 100 nM	10 to 100 nM	10 to 100 nM	10 to 100 nM	10 to 100 nM	100 to 1000 nM	10 to 100 nM	10 to 100 nM	10 to 100 nM	10 to 100 nM	< 10 nM
CCn1c(-c2cccnc2[C@H](C)OC)c2c3cc(ccc31)-c1cc(O)cc(c1)C[C@H](NC(=O)[C@H](C(C)C)N(C)C(=O)CN(C)C(=O)[C@H]1N[C@@H]1C(F)(F)F)C(=O)N1CCC[C@H](N1)C(=O)OCC(C)(C)C2 [Example 261]	10 to 100 nM	< 10 nM	100 to 1000 nM	< 5000 nM	10 to 100 nM	10 to 100 nM	10 to 100 nM	10 to 100 nM	100 to 1000 nM	100 to 1000 nM	10 to 100 nM	10 to 100 nM	10 to 100 nM	10 to 100 nM	10 to 100 nM
CC[C@H]1N[C@H]1C(=O)N(C)CC(=O)N(C)[C@H](C(=O)N[C@H]1Cc2cc(O)cc(c2)-c2ccc3c(c2)c(c(-c2cccnc2[C@H](C)OC)n3CC)CC(C)(C)COC(=O)[C@@H]2CCCN(N2)C1=O)C(C)C [Example 262]	10 to 100 nM	10 to 100 nM	100 to 1000 nM	< 5000 nM	10 to 100 nM	10 to 100 nM	10 to 100 nM	100 to 1000 nM	100 to 1000 nM	100 to 1000 nM	10 to 100 nM	10 to 100 nM	10 to 100 nM	10 to 100 nM	10 to 100 nM
